Laboratory results from PubChem BioAssay (NCI).
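Protocol summary: plate cells (96-well), add compound at 5 concentrations, incubate 48 h, interpolate endpoints linearly. GI50 is the concentration that inhibits growth by half. Definition used: TGI = concentration required for complete inhibition of growth.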

Assays:
Test in all cases: NCI tumour cell line growth inhibition, 48 h
[1] = test system: CAKI-1 renal
[2] = test system: NCI-H226 lung
[3] = test system: CCRF-CEM leukemia
[4] = test system: SN12C renal
[5] = test system: A549 NSCLC
[6] = test system: SK-MEL-5 melanoma
[7] = test system: A498 renal
[8] = test system: 786-0 renal
[9] = test system: MCF7 breast
[10] = test system: SK-MEL-28 melanoma
[11] = test system: SNB-75 CNS
[12] = test system: HL-60(TB) leukemia
[13] = test system: SK-MEL-2 melanoma
[14] = test system: SF-539 CNS
[15] = test system: HCC-2998 colon
[16] = test system: EKVX NSCLC
[17] = test system: SK-OV-3 ovarian
[18] = test system: OVCAR-5 ovarian
[19] = test system: RPMI-8226 leukemia
[20] = test system: MDA-MB-435
[21] = test system: OVCAR-8 ovarian
[22] = test system: K-562 leukemia
[23] = test system: HS 578T breast
[24] = test system: UACC-257 melanoma
[25] = test system: HOP-92 NSCLC
[26] = test system: UACC-62 melanoma
[27] = test system: SF-295 CNS
[28] = test system: NCI-H23 lung
[29] = test system: SR leukemia

With CCN1C(C)(C)CC(Oc2ccc(C(=O)Nc3ccc(NC(=O)Nc4cc(C(C)(C)C)on4)cc3)nc2)CC1(C)C as the compound, how does the GI50 [1] read?
The GI50 was 1.98 µM.

What about the TGI [1] of the same compound?
The TGI was 5.35 µM.

What about the GI50 [2] of the same compound?
Its GI50 is 11.2 µM.

What about the TGI [2] of the same compound?
Its TGI is 30.7 µM.

What about the GI50 [3] of the same compound?
Its GI50 is 2.85 µM.

And the TGI [3]?
Its TGI is 7.77 µM.

And the GI50 [4]?
Its GI50 is 1.66 µM.

What about the TGI [4] of the same compound?
Its TGI is 3.4 µM.

And the GI50 [5]?
Its GI50 is 2.71 µM.

What about the TGI [5] of the same compound?
Its TGI is 7.4 µM.

What about the GI50 [6] of the same compound?
The GI50 was 1.68 µM.

And the TGI [6]?
The TGI was 3.22 µM.

What about the GI50 [7] of the same compound?
Its GI50 is 1.95 µM.

And the TGI [7]?
Its TGI is 11.6 µM.

And the GI50 [8]?
The GI50 was 1.66 µM.

And the TGI [8]?
The TGI was 3.52 µM.

What about the GI50 [9] of the same compound?
Its GI50 is 2.14 µM.

And the TGI [9]?
The TGI was 5.55 µM.

And the GI50 [10]?
Its GI50 is 1.8 µM.

What about the TGI [10] of the same compound?
The TGI was 3.63 µM.

What about the GI50 [11] of the same compound?
Its GI50 is 1.35 µM.

What about the TGI [11] of the same compound?
The TGI was 3.44 µM.

What about the GI50 [12] of the same compound?
The GI50 was 2.02 µM.

What about the TGI [12] of the same compound?
The TGI was 4.38 µM.

What about the GI50 [13] of the same compound?
Its GI50 is 2.09 µM.

What about the TGI [13] of the same compound?
Its TGI is 4.89 µM.

What about the GI50 [14] of the same compound?
The GI50 was 1.15 µM.

And the TGI [14]?
Its TGI is 2.62 µM.

And the GI50 [15]?
Its GI50 is 1.9 µM.

What about the TGI [15] of the same compound?
The TGI was 4.17 µM.

And the GI50 [16]?
Its GI50 is 3.6 µM.

And the TGI [16]?
Its TGI is 20.9 µM.

And the GI50 [17]?
The GI50 was 6.03 µM.

What about the TGI [17] of the same compound?
Its TGI is 15.9 µM.

What about the GI50 [18] of the same compound?
Its GI50 is 2.94 µM.

What about the TGI [18] of the same compound?
Its TGI is 11.4 µM.

And the GI50 [19]?
The GI50 was 1.96 µM.

And the TGI [19]?
The TGI was 4.72 µM.

What about the GI50 [20] of the same compound?
The GI50 was 1.82 µM.

And the TGI [20]?
Its TGI is 3.47 µM.

What about the GI50 [21] of the same compound?
Its GI50 is 2.29 µM.

And the TGI [21]?
Its TGI is 5.66 µM.

And the GI50 [22]?
Its GI50 is 1.69 µM.

And the TGI [22]?
The TGI was 3.76 µM.

And the GI50 [23]?
Its GI50 is 1.44 µM.

And the TGI [23]?
The TGI was 6.06 µM.

What about the GI50 [24] of the same compound?
Its GI50 is 2.2 µM.

What about the TGI [24] of the same compound?
Its TGI is 4.02 µM.

And the GI50 [25]?
Its GI50 is 2.38 µM.

What about the TGI [25] of the same compound?
The TGI was 8.09 µM.

What about the GI50 [26] of the same compound?
Its GI50 is 1.76 µM.

And the TGI [26]?
The TGI was 3.51 µM.

What about the GI50 [27] of the same compound?
Its GI50 is 1.67 µM.

What about the TGI [27] of the same compound?
Its TGI is 3.27 µM.

What about the GI50 [28] of the same compound?
The GI50 was 3.64 µM.

And the TGI [28]?
The TGI was 20.1 µM.

And the GI50 [29]?
The GI50 was 2.28 µM.

And the TGI [29]?
Its TGI is 4.91 µM.
